# Measured values reported in US6407247B1, “Photo-stable cosmetic and pharmaceutical formulations containing UV-filters” (BASF Aktiengesellschaft, priority 1996, dated 2002).
# Assays:
# [1] = UV absorption of the compounds of Table 2 (absorption maximum and specific extinction); type: physicochemical; set-up: λmax: unit not given beside the values; settings: for λmax: UV absorption maximum; for E^11: specific extinction at λmax
# [2] = used alone or in combination with UV-B filters; cited from earlier work
λmax ([1]; Table 2),E^11 ([1]; Table 2),Compound,"E^11 ([1]; Table 2, (water))",photochemical stability [2]
336,1035,COc1cccc(NC=C(C(C)=O)C(C)=O)c1 [Compound 26],,
346,1049,CCCCC(CC)COC(=O)c1ccc(NC=C(C(C)=O)C(C)=O)cc1 (stereo not drawn) [Compound 27],,
346,757,CCCCC(CC)COC(=O)c1ccccc1NC=C(C(C)=O)C(=O)CC (stereo not drawn) [Compound 28],,
346,941,CCCCC(CC)COC(=O)c1ccc(NC=C(C(C)=O)C(=O)OC)cc1 (stereo not drawn) [Compound 29],,
344,1008,COC(=O)/C(=C\Nc1ccccc1C(=O)OC)C(C)=O [Compound 30],,
344,717,CCCCC(CC)COC(=O)c1ccccc1NC=C(C(C)=O)C(=O)OC(C)(C)C (stereo not drawn) [Compound 31],,
346,646,CCCCC(CC)COC(=O)C(C#N)=CNc1ccc(OC)cc1OC (stereo not drawn) [Compound 32],,
350,612,CCCCC(CC)COC(=O)C(C#N)=CNc1cc(OC)ccc1OC (stereo not drawn) [Compound 33],,
322,761,CCCCC(CC)COC(=O)C(C#N)=CNc1cc(OC)cc(OC)c1 (stereo not drawn) [Compound 34],,
332,1105,CCCCC(CC)COC(=O)C(C#N)=CNc1ccc(C(=O)OCC)cc1 (stereo not drawn) [Compound 35],,
336,752,CCCCC(CC)COC(=O)C(C#N)=CNc1ccccc1C(=O)OC (stereo not drawn) [Compound 36],,
336,890,CCOC(=O)C(=CNc1ccccc1C(=O)OC)C(=O)OCC [Compound 37],,
335,630,CCCCC(CC)COC(=O)c1ccccc1NC=C(C(=O)OCC)C(=O)OCC (stereo not drawn) [Compound 38],,
320,700,CCCCC(CC)COC(=O)c1ccc(NC=C(C(=O)OCC)C(=O)OCC)cc1 (stereo not drawn) [Compound 39],,
358,743,CCCCC(CC)COC(=O)c1ccccc1NC=C1CCC(C)(C)CC1=O (stereo not drawn) [Compound 40],,
330,1191,CCCCC(CC)COC(=O)c1ccc(NC=C(C#N)C#N)cc1 (stereo not drawn) [Compound 41],,
374,1175,CCCCC(CC)COC(=O)c1ccc(NC=C2C(=O)c3ccccc3C2=O)cc1 (stereo not drawn) [Compound 42],,
362,869,CCCCC(CC)COC(=O)c1ccc(NC=C(C#N)C(=O)c2ccccc2)cc1 (stereo not drawn) [Compound 43],,
336,896,CCCCC(CC)COC(=O)c1ccc(NC=C2C(=O)OC(C)(C)OC2=O)cc1 (stereo not drawn) [Compound 44],,

# The remaining lines, values behind:
Compound,λmax ([1]; Table 2),E^11 ([1]; Table 2),"E^11 ([1]; Table 2, (water))",photochemical stability [2]
CCCCC(CC)COC(=O)c1ccc(NC=C(C#N)C(=O)C(C)(C)C)cc1 (stereo not drawn) [Compound 1],346,860,,
Cc1cccc(NC=C(C#N)C(=O)C(C)(C)C)c1 [Compound 2],338,978,,
COc1ccc(NC=C(C#N)C(=O)C(C)(C)C)cc1 [Compound 3],348,841,,
CC(C)(C)C(=O)C(C#N)=CNc1ccc(C(C)(C)C)cc1 [Compound 4],342,888,,
CCCCc1ccc(NC=C(C#N)C(=O)C(C)(C)C)cc1 [Compound 5],342,884,,
CCCCC(CC)CNC(=O)c1ccc(NC=C(C#N)C(=O)C(C)(C)C)cc1 (stereo not drawn) [Compound 6],346,773,,
CC(C)c1ccc(NC=C(C#N)C(=O)C(C)(C)C)cc1 [Compound 7],342,903,,
CCCc1ccc(NC=C(C#N)C(=O)C(C)(C)C)cc1 [Compound 8],342,918,,
CCCCC(CC)COC(=O)c1ccccc1NC=C(C#N)C(=O)C(C)(C)C (stereo not drawn) [Compound 9],348,717,,
CC(C)(C)C(=O)C(C#N)=CNc1ccccc1C#N [Compound 10],338,995,,
CC(C)Oc1cccc(NC=C(C#N)C(=O)C(C)(C)C)c1 [Compound 12],340,829,,
CC(C)(C)C(=O)C(C#N)=CNc1ccccc1C(=O)O.OCCN(CCO)CCO [Compound 13],346,,667 (water),
COc1ccc(OC)c(NC=C(C#N)C(=O)C(C)(C)C)c1 [Compound 14],362,491,,
CC(C)(C)C(=O)C(C#N)=CNc1ccccc1C(=O)O [Compound 15],346,965,,
CC(C)(C)C(=O)C(C#N)=CNc1ccc(S(=O)(=O)O)cc1.OCCN(CCO)CCO [Compound 16],340,,666 (water),
CC(C)(C)C(=O)C(C#N)=CNc1ccc(S(=O)(=O)[O-])cc1.[Na+] [Compound 17],340,,1010 (water),
CCOc1ccccc1NC=C(C#N)C(=O)C(C)(C)C [Compound 18],352,876,,
COC(=O)c1ccccc1NC=C(C#N)C(=O)C(C)(C)C [Compound 19],348,995,,
CC(C)COC(=O)c1ccccc1NC=C(C#N)C(=O)C(C)(C)C [Compound 20],348,864,,
CCCCOC(=O)c1ccccc1NC=C(C#N)C(=O)C(C)(C)C [Compound 21],346,825,,
CCCCOC(=O)c1ccccc1NC=C(C(C)=O)C(C)=O [Compound 25],344,938,,
"COc1ccc(C(=O)CC(=O)c2ccc(C(C)(C)C)cc2)cc1 [PARSOL 1789, 4-(1,1-dimethylethyl)-4-methoxy-dibenzoylmethane]",,,,not sufficiently photochemically stable
